Tests used:
[1] = biological target: T1, 5-hydroxytryptamine receptor 2C (Homo sapiens, UniProt P28335)
T1 sequence (P28335 whole entry): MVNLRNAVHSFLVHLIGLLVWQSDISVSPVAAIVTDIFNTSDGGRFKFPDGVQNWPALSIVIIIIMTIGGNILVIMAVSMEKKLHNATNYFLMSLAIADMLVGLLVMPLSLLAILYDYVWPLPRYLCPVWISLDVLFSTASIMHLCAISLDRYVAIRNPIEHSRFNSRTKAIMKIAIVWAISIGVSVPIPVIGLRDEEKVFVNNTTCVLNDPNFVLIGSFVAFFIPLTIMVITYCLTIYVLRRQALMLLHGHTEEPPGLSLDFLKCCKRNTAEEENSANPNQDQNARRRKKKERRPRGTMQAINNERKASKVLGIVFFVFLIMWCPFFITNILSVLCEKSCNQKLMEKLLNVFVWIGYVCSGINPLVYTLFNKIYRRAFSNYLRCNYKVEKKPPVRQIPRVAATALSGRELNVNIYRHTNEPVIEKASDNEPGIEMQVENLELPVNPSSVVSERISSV

[2] = biological target: 5-hydroxytryptamine receptor 2B (Homo sapiens, UniProt P41595)
Sequence of 5-hydroxytryptamine receptor 2B (P41595 whole entry): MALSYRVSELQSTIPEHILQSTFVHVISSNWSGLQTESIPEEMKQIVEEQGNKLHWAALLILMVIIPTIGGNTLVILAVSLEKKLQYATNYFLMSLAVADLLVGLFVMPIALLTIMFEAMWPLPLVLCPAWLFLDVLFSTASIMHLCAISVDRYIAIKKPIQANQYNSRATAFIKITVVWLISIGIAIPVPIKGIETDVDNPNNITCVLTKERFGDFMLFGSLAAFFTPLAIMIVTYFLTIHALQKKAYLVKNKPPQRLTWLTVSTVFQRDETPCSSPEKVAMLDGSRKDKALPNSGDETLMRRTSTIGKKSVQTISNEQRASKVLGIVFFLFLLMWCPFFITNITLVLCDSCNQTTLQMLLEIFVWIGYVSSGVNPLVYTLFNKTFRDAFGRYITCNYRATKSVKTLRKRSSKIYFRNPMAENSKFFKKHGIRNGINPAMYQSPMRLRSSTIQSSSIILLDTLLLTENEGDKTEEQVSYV

Row | Compound | Ki [1] [µM] | Ki [2] [µM]
1 | CN1CCc2cc(Cl)c(O)cc2[C@@H](c2ccccc2)C1 [SCH 23390,R(+)] | 0.0407 | 0.0708
2 | c1ccc2nc(N3CCNCC3)ccc2c1 [2-Piperazin-1-yl-quinoline (Quipazine)] | 0.339 | 0.178
3 | NCCc1c[nH]c2ccccc12 [1H-indole-3-ethanamine] | 0.0457 | 0.0295
4 | COc1cc(CC(C)N)c(OC)cc1Br (stereo not drawn) [2-(4-Bromo-2,5-dimethoxy-phenyl)-1-methyl-ethylamine((-)-DOB)] | – | 0.00288
5 | Clc1cncc(N2CCNCC2)n1 [L-630,571] | 0.214 | 0.295
6 | NCCc1c[nH]c2ccc(C(N)=O)cc12 [[3H]-5-carboxamidotryptamine] | – | 0.0155
7 | FC(F)(F)c1cccc(N2CCNCC2)c1 [TFMPP] | – | 0.288
8 | Cn1cc(CCN)c2cc(O)ccc21 [5-HT,omega-N-Me] | 0.0115 | 0.002
9 | FC(F)(F)c1ccc(N2CCNCC2)nc1Cl [2-Chloro-3-(trifluoromethyl)-6-(1-piperazinyl)pyridine] | 0.0977 | 0.525
10 | Cc1[nH]c2ccc(O)cc2c1CCN | 1.2 | 0.17
11 | COc1cc(CC(C)N)c(OC)cc1I (configuration not stated) [[125I]2,5-dimethoxy-4-iodoamphetamine] | 0.00794 | 0.00141
12 | COc1ccc2c(c1[C@@H]1CCNC1)CCC2 [ORG-37684] | 0.00676 | 0.011
13 | CC(N)Cc1c[nH]c2ccc(OCc3cccs3)cc12 (configuration not stated) [NSC_5311036] | 0.0933 | –
14 | CC(N)Cn1ccc2cc(F)c(Cl)cc21 (configuration not stated) [NSC_3045226] | 0.0324 | 0.00089
15 | C[C@H](N)Cc1cccc(C(F)(F)F)c1 [Norfenfluramine (+)] | 0.17 | 0.00871
16 | CCCN(CCC)C1CCc2cccc(O)c2C1 (configuration not stated) | – | 0.891

From BindingDB's records for doi:10.1038/sj.bjp.0702751 (Cerebrus, 1999)
